In one data set the test system is neurolysin (Nln). Kind of data set: Nln (0.1 ng), homogeneous recombinant enzyme.
A short description of data set [1]: crude tissue extract (liver, 30 µg). To be noted: WT mice, up to 20 min.
The nature of data set [2]: crude tissue extract (kidney, 3 µg). To be noted: WT mice, up to 20 min.
Data set [3] relates to THOP1. The data set can be described thus: THOP1 (0.1 ng), homogeneous recombinant enzyme.
Another data set concerns C57BL/6N (WT) mice. The class given is in vivo, mouse. As to the method:
In vivo experiments were conducted with male C57BL/6N (WT) mice 12–16 weeks-old (University of São Paulo Medical School Animal Facility, SP, Brazil). Mice were maintained in individual ventilated cages (Amresco, SP, Brazil), under standardized conditions with an artificial 12 h dark–light cycle, with free access to standard chow (Nuvital Nutrientes S.A., Colombo, PR, Brazil) and drinking water ad libitum. The number of animals used was the minimum necessary to obtain statistically significant results and they were maintained and used in accordance with the guidelines of the National Council for Control of Animal Experiments (CONCEA), following international norms of animal care and maintenance. Thus, we hereby state that all experimental protocols were previously approved by University of São Paulo Ethic committee councils from Biomedical Science Institute (approval number for mice experimentation ICB/USP 22/2017).
WT mice were fasted for 12 h and blood samples were taken before and at 15, 30, 60, 90, and 120 min after the intraperitoneal (ip) injection of 2 g/kg glucose. Glycemia was measured using a glucometer (Accu-Check Performa, ROCHE, São Paulo, Brazil). Peptides were evaluated to affect glucose uptake either after ip or oral (by gavage) administration. After 20 min glucose was administrated (blood glucose levels reached 400 mg/dL), animals received ip or oral administration of either saline, insulin (0.75 IU/kg), or peptide (Ric2 or Ric4; 600 µg/kg). In addition, a group of animals received oral administration of either water or Ric2 or Ric4 (600 µg/kg). Glycemia was measured as indicated following vehicle, insulin, or peptide administration.

Data set [4] deals with differentiated C2C12 cells. The data set can be described thus: Glucose uptake in C2C12 myotubes. The class given is cell-based, mouse. To be noted: peptides 100 µM, insulin 100 nM; 30 min, 37 °C; 3H-glucose (1 µCi/mL) or 2-NBDG (80 µM).
Data set [5] has as its target THOP1 (Rattus norvegicus, UniProt P24155). The class given is in vitro ADME. As to the method:
(§1) Peptide hydrolyses were analyzed by reverse phase liquid chromatography (HPLC) using a C18 µBond-pak column (4.6 × 250 mm; Millipore Corp.) with a linear gradient of 5–65% acetonitrile in 0.1% TFA for 20 min at a flow rate of 1 mL/min, and absorbance monitored at a wavelength of 214 nm, as previously described. Cleaved peptide bonds were identified by mass spectrometry sequencing after isolating the cleavage fragments manually after HPLC, as previously described (data not shown). Control enzyme assays were conducted using bradykinin ([…]; 50 µM) as a standard substrate.

The subject of another data set is Nln. In kind it is in vitro ADME. How it is done: as §1
The nature of data set [6]: in vitro. The class given is in vitro ADME. To be noted: other tissue homogenate, mouse kidney crude extract 3 µg, peptide 50 µM, 250 µL TBS (0.025 M Tris-HCl, 0.125 M NaCl), RP-HPLC C18, UV 214 nm, average of three independent determinations, read-out: % of peptide degraded, Kidney Extract (3 µg). As to the method:
as §1
(IGF1) Rev: AGAGGTGTGAAGAC-
(GLUT4) Rev: CAGCTCCTATGGTGGCG-
Glyceraldehyde 3-phosphate de- TGCCAGCCTCGTCC 75 BC_085275 hydrogenase (GAPDH) Rev: CAGGCGCCCAATAC-
Figure S1. Typical experiments to evaluate the enzymatic stability of Ric4 and derivatives on kidney tissue extracts. In order to determine if the peptides investigated herein were substrates of tissue peptidases, 50 μM of each peptide was individually incubated for 20 min in the presence of increas-ing crude kidney tissue extracts (0 µg, 3 µg or 30 µg, as indicated), in a final volume of 250 μl of 0,025 M Tris-HCl, containing 0.125 M NaCl (TBS). Peptide hydrolyses were analyzed by reverse phase liquid chromatography (HPLC) using a C18 µBond-pak column (4.6 x 250 mm; Millipore Corp.) with a linear gradient of 5-65% acetonitrile in 0.1 % TFA for 20 min at a flow rate of 1 mL/min, (1 picture or pasted object on this page, not shown here)

Data set [7] can be described thus: in vitro. In kind it is in vitro ADME, mouse. To be noted: other tissue homogenate; mouse liver crude extract 30 µg; peptide 50 µM; 20 min; 250 µL TBS (0.025 M Tris-HCl, 0.125 M NaCl); RP-HPLC C18, UV 214 nm; average of three independent determinations; read-out: % of peptide degraded, Liver Extract (30 µg). As to the method:
as §1

Like-named read-outs stand apart in the source and are kept apart here. Square brackets hold non-standard residues; d marks the D form. Ends that are not written are not given here. Peptide text beside a SMILES is read from it.

Chain of THOP1 (Rattus norvegicus, UniProt P24155) (P24155 whole entry, the tested form may be a part): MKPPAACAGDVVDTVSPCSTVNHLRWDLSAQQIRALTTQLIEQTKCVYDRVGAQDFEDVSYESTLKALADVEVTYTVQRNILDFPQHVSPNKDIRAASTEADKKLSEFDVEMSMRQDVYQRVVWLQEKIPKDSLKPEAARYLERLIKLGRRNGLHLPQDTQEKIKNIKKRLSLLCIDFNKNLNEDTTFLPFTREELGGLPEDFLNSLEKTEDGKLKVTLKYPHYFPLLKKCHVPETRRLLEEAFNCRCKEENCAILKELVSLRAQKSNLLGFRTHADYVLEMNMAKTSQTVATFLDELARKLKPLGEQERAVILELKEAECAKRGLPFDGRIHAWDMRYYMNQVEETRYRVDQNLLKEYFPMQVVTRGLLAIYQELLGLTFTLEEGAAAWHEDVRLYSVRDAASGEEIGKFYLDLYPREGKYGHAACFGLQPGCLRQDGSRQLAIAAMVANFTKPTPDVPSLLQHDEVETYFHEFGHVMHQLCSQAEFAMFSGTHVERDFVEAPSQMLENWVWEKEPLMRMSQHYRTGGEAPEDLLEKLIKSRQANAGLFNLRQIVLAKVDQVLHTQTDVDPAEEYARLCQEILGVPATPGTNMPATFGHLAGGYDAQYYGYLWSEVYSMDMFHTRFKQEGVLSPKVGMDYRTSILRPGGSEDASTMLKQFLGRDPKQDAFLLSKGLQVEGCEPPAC

As to LASVSTVLTSKYR, the not cleaved in the data set on neurolysin (Nln) is recorded as 4.69 % of peptide degraded; with THOP1 [3], 2.22 % of peptide degraded. Further, the cleaved bond entry in [1] is on record as “Leu8-Thr9, first_seen”; in [2], “Leu8-Thr9, first_seen”.

“Ac-LASVSTVLTSKYR-NH2 [Ric4-2, Ric4 derived peptide]”: in the data set on C57BL/6N (WT) mice (WT mice fasted 12 h, glucose 2 g/kg ip at time zero, peptide 600 µg/kg orally by gavage), the “blood glucose levels in GTT, oral administration” value is on record as “ability to reduce blood glucose levels”.

In the case of Ac-LASVSTVLTSKYR-NH2, the not cleaved is listed as 1.18 % of peptide degraded with neurolysin (Nln) and 4.55 % of peptide degraded in the data set on THOP1 [3].

As to “Ac-LASVSTV[dL]TSKYR-NH2 [Ric4-16, Ric4 derived peptide]”, in the data set with C57BL/6N (WT) mice (mouse, in vivo, po), the oral bioavailability result is reported as “no oral bioavailability”. In [4], the “glucose uptake in differentiated C2C12 cells” value is given as “efficiently induced glucose uptake”.

RPPGFSPFR [Bradykinin]: the “% of peptide degraded, THOP1” value on THOP1 [5] was 11.93%. The “% of peptide degraded, Nln” value with Nln was determined as 14.51%.

With LASVSTVLTSKYR [RIC4], the metabolised at 20 min is 22.6% in “in vitro [6]” and 62.4% in the data set “in vitro [7]”.

For Ac-LASVSTVLTSKYR-NH2 [RIC4-2], the metabolised at 20 min in “in vitro [6]” was 60%; in “in vitro [7]”, 70.2%.

For `CC(=O)N[C@@H](CC(C)C)C(=O)N[C@@H](C)C(=O)N[C@@H](CO)C(=O)N[C@H](C(=O)N[C@@H](CO)C(=O)N[C@H](C(=O)N[C@H](C(=O)N[C@H](CC(C)C)C(=O)N[C@H](C(=O)N[C@@H](CO)C(=O)N[C@@H](CCCCN)C(=O)N[C@@H](Cc1ccc(O)cc1)C(=O)N[C@@H](CCCNC(=N)N)C(N)=O)[C@@H](C)O)C(C)C)[C@@H](C)O)C(C)C` [RIC4-16] (Ac-LASVSTV[dL]TSKYR-NH2), the values for the metabolised at 20 min in the data set “in vitro [6]” and in “in vitro [7]” were 12.5% and 26%, respectively.

The values are drawn from article PMC8708875 (Pharmaceutics, 2021).
